Here are results for two compounds from US20140235848A1, “METHOD FOR MAKING A PRECURSOR OF L-FUCOSE FROM D-GLUCOSE” (Glycom A/S, priority 2011, published 2014).

This series is described as follows: Partition studies between organic solvent and water. It is filed as physicochemical. Conditions: for affinity to organic solvents as compared to aqueous media / solubility in organic versus aqueous solvents: conclusion in words from the partition studies. The method, then: 1,2-O-Cyclohexylidene-6-deoxy-β-L-talofuranose (197 mg) was partitioned between water (10 mL) and methylene chloride (10 mL), layers separated and the residual amount of solutions in the separatory funnel were partitioned with extra amount of water (5 mL) and methylene chloride (5 mL). The combined organic phases were evaporated and dried in vacuo (50° C., <1 mbar, 1 hour) to give 140 mg of the title compound. The aqueous solution gave 53 mg after lyophilisation and drying in vacuo (50° C., <1 mbar, 2 hrs). Using the same procedure, partition between ethyl acetate and water provided 127 mg of the title compound from ethyl acetate phase and 70 mg from the aqueous phase.
Analogously, 1,2-O-isopropylidene-6-deoxy-β-L-talofuranose (150 mg) was partitioned between methylene chloride (24 mg) and aqueous phase (126 mg). Partition between ethyl acetate and water furnished 7 mg and 143 mg of the title compound, respectively.

SMILES strings stand for the structures.

As to `C[C@H](O)[C@H]1O[C@@H]2OC(C)(C)O[C@@H]2[C@@H]1O` [1,2-O-isopropylidene-6-deoxy-β-L-talofuranose], the “affinity to organic solvents as compared to aqueous media” value was “higher affinity to aqueous medium”; the “solubility in organic versus aqueous solvents” value is “highly soluble in aqueous solutions and almost insoluble in organic solvents”. The log partition coefficient (logP) (solvent system CH2Cl2-water) is 0.72. For the same compound, the logP (solvent system ethyl acetate-water) stood at 0.79.

As for `C[C@H](O)[C@H]1O[C@@H]2OC3(CCCCC3)O[C@@H]2[C@@H]1O` [6-deoxy-1,2-O-cyclohexylidene-β-L-talofuranose], the “affinity to organic solvents as compared to aqueous media” value is recorded as “higher affinity to organic solvents as compared to aqueous media” and the “solubility in organic versus aqueous solvents” value is “much higher solubility of compound 1G in organic solvents as compared to aqueous solvents”.
